Experiments:
[1] = Antiproliferative activity against human L02 cells assessed as cell growth inhibition at 1 uM incubated for 72 hrs by SRB assay; format: toxicity, cell-based
[2] = Antiproliferative activity against human L02 cells assessed as cell growth inhibition at 0.1 uM incubated for 72 hrs by SRB assay; format: toxicity, cell-based
HCT-116 [3] = assay: Antiproliferative activity against human HCT-116 cells assessed as cell growth inhibition at 0.1 uM incubated for 72 hrs by SRB assay; format: functional
HCT-116 [4] = assay: Antiproliferative activity against human HCT-116 cells assessed as cell growth inhibition at 1 uM incubated for 72 hrs by SRB assay; format: functional
[5] = Selectivity index, ratio of IC50 for antiproliferative activity against human L02 cells to IC50 for antiproliferative activity against human HCT-116 cells; format: toxicity, cell-based; conditions: L02 cells versus HCT-116 cells, read-out: Ratio IC50
[6] = Antiproliferative activity against human L02 cells assessed as cell growth inhibition incubated for 72 hrs by SRB assay; format: toxicity, cell-based
HCT-116 [7] = assay: Antiproliferative activity against human HCT-116 cells assessed as cell growth inhibition incubated for 72 hrs by SRB assay; format: functional, cell-based; conditions: HCT-116, 72 h

Structure (SMILES) | inhibition at 72 h, 1 µM [1] | inhibition at 72 h, 0.1 µM [2] | inhibition at 0.1 µM (HCT-116 [3]) | inhibition at 1 µM (HCT-116 [4]) | selectivity ratio [5] | IC50 at 72 h [6] | IC50 (HCT-116 [7])
COc1ccc(/C=C/C(=O)O[C@H]2C[C@@H]3C(=CC[C@@H]4[C@@]3(C)C(=O)C[C@]3(C)[C@@H]([C@@](C)(O)C(=O)/C=C/C(C)(C)OC(C)=O)[C@H](OC(=O)/C=C/c5ccc(OC)cc5)C[C@@]43C)C(C)(C)C2=O)cc1 | 0.89% | -2.33% | 0.38% | 2.18% |  |  | 
CC(=O)OC(C)(C)/C=C/C(=O)[C@](C)(O)[C@H]1[C@H](O)C[C@@]2(C)[C@@H]3CC=C4[C@@H](C[C@H](OC(=O)Cn5ncn(-c6ccc(C)cc6)c5=O)C(=O)C4(C)C)[C@]3(C)C(=O)C[C@]12C | 68.2% | 36.5% | 72.5% | 82.1% | 0.33 | 40 nM | 121 nM
CC(=O)OC(C)(C)/C=C/C(=O)[C@](C)(O)[C@H]1[C@H](O)C[C@@]2(C)[C@@H]3CC=C4[C@@H](C[C@H](OC(=O)c5cn(-c6ccc(Br)cc6)nn5)C(=O)C4(C)C)[C@]3(C)C(=O)C[C@]12C | 73.6% | 0.01% | 15.6% | 93% |  |  | 
CC(=O)OC(C)(C)/C=C/C(=O)[C@](C)(O)[C@H]1[C@H](OC(=O)/C=C/c2ccc(F)cc2)C[C@@]2(C)[C@@H]3CC=C4[C@@H](C[C@H](O)C(=O)C4(C)C)[C@]3(C)C(=O)C[C@]12C | 67% | 7.68% | 5.23% | 1.19% |  |  | 
COc1cc(-n2cnn(CC(=O)O[C@H]3C[C@@H]4C(=CC[C@@H]5[C@@]4(C)C(=O)C[C@]4(C)[C@@H]([C@@](C)(O)C(=O)/C=C/C(C)(C)OC(C)=O)[C@H](O)C[C@@]54C)C(C)(C)C3=O)c2=O)cc(OC)c1OC | 70% | 66% | 78% | 84.2% | 0.81 | 30 nM | 37 nM
CC(=O)OC(C)(C)/C=C/C(=O)[C@](C)(O)[C@H]1[C@H](O)C[C@@]2(C)[C@@H]3CC=C4[C@@H](C[C@H](OC(=O)c5ccco5)C(=O)C4(C)C)[C@]3(C)C(=O)C[C@]12C | 69.2% | 20% | 22.1% | 83.5% |  |  | 
CC(=O)OC(C)(C)/C=C/C(=O)[C@](C)(O)[C@H]1[C@H](O)C[C@@]2(C)[C@@H]3CC=C4[C@@H](C[C@H](OC(=O)c5cn(-c6ccc(Cl)cc6)nn5)C(=O)C4(C)C)[C@]3(C)C(=O)C[C@]12C | 72.6% | 12.5% | 35.1% | 94% |  |  | 
CC(=O)OC(C)(C)/C=C/C(=O)[C@](C)(O)[C@H]1[C@H](O)C[C@@]2(C)[C@@H]3CC=C4[C@@H](C[C@H](OC(=O)c5cccs5)C(=O)C4(C)C)[C@]3(C)C(=O)C[C@]12C | 75.2% | 4.77% | 3.99% | 95.2% |  |  | 
COc1ccc(/C=C/C(=O)O[C@@H]2C[C@@]3(C)[C@@H]4CC=C5[C@@H](C[C@H](O)C(=O)C5(C)C)[C@]4(C)C(=O)C[C@]3(C)[C@H]2[C@@](C)(O)C(=O)/C=C/C(C)(C)OC(C)=O)cc1 | 47.4% | -3.17% | 0.47% | 67.3% |  |  | 
CC(=O)OC(C)(C)/C=C/C(=O)[C@](C)(O)[C@H]1[C@H](O)C[C@@]2(C)[C@@H]3CC=C4[C@@H](C[C@H](OC(=O)c5cccnc5)C(=O)C4(C)C)[C@]3(C)C(=O)C[C@]12C | 68.3% | 10.1% | 19.9% | 82.4% |  |  | 
CC(=O)OC(C)(C)/C=C/C(=O)[C@](C)(O)[C@H]1[C@H](O)C[C@@]2(C)[C@@H]3CC=C4[C@@H](C[C@H](OC(=O)Cn5ncn(-c6ccccc6)c5=O)C(=O)C4(C)C)[C@]3(C)C(=O)C[C@]12C | 71.6% | 59.6% | 67.9% | 82.2% | 1.57 | 80 nM | 51 nM
CC(=O)OC(C)(C)/C=C/C(=O)[C@](C)(O)[C@H]1[C@H](O)C[C@@]2(C)[C@@H]3CC=C4[C@@H](C[C@H](OC(=O)/C=C/c5ccc(F)cc5)C(=O)C4(C)C)[C@]3(C)C(=O)C[C@]12C | 1.62% | -3.78% | 1.53% | 87.6% |  |  | 
CC(=O)OC(C)(C)/C=C/C(=O)[C@](C)(O)[C@H]1[C@H](O)C[C@@]2(C)[C@@H]3CC=C4[C@@H](C[C@H](OC(=O)/C=C/c5ccccc5)C(=O)C4(C)C)[C@]3(C)C(=O)C[C@]12C | 72.7% | 1.72% | 1.46% | 86.8% |  |  | 
CC(=O)OC(C)(C)/C=C/C(=O)[C@](C)(O)[C@H]1[C@H](OC(=O)/C=C/c2ccc(C)cc2)C[C@@]2(C)[C@@H]3CC=C4[C@@H](C[C@H](OC(=O)/C=C/c5ccc(C)cc5)C(=O)C4(C)C)[C@]3(C)C(=O)C[C@]12C | 8.01% | -13.3% | 0.65% | 4.21% |  |  | 
COc1ccc(-n2cc(C(=O)O[C@H]3C[C@@H]4C(=CC[C@@H]5[C@@]4(C)C(=O)C[C@]4(C)[C@@H]([C@@](C)(O)C(=O)/C=C/C(C)(C)OC(C)=O)[C@H](O)C[C@@]54C)C(C)(C)C3=O)nn2)cc1 | 73.1% | 12.6% | 49.4% | 92.1% |  |  | 
COc1ccc(/C=C/C(=O)O[C@H]2C[C@@H]3C(=CC[C@@H]4[C@@]3(C)C(=O)C[C@]3(C)[C@@H]([C@@](C)(O)C(=O)/C=C/C(C)(C)OC(C)=O)[C@H](O)C[C@@]43C)C(C)(C)C2=O)cc1 | 67.3% | -9.08% | 5.28% | 79.4% |  |  | 
CC(=O)OC(C)(C)/C=C/C(=O)[C@](C)(O)[C@H]1[C@H](O)C[C@@]2(C)[C@@H]3CC=C4[C@@H](C[C@H](OC(=O)c5cn(-c6ccc(C)cc6)nn5)C(=O)C4(C)C)[C@]3(C)C(=O)C[C@]12C | 72.4% | 3.68% | 27.9% | 88.1% |  |  | 
CC(=O)OC(C)(C)/C=C/C(=O)[C@](C)(O)[C@H]1[C@H](OC(=O)/C=C/c2ccccc2)C[C@@]2(C)[C@@H]3CC=C4[C@@H](C[C@H](O)C(=O)C4(C)C)[C@]3(C)C(=O)C[C@]12C | 13.2% | 1.86% | 2.73% | 16.5% |  |  | 
CC(=O)OC(C)(C)/C=C/C(=O)[C@](C)(O)[C@H]1[C@H](OC(=O)/C=C/c2ccc(C)cc2)C[C@@]2(C)[C@@H]3CC=C4[C@@H](C[C@H](O)C(=O)C4(C)C)[C@]3(C)C(=O)C[C@]12C | 7.53% | 3.35% | 5.73% | 4.99% |  |  | 
CC(=O)OC(C)(C)/C=C/C(=O)[C@](C)(O)[C@H]1[C@H](OC(=O)/C=C/c2ccc(F)cc2)C[C@@]2(C)[C@@H]3CC=C4[C@@H](C[C@H](OC(=O)/C=C/c5ccc(F)cc5)C(=O)C4(C)C)[C@]3(C)C(=O)C[C@]12C | 6.72% | -13.1% | 2.07% | 7.98% |  |  | 
CC(=O)OC(C)(C)/C=C/C(=O)[C@](C)(O)[C@H]1[C@H](O)C[C@@]2(C)[C@@H]3CC=C4[C@@H](C[C@H](OC(=O)/C=C/c5ccc(C)cc5)C(=O)C4(C)C)[C@]3(C)C(=O)C[C@]12C | 44.1% | 1.88% | 0.24% | 55.6% |  |  | 
CC(=O)OC(C)(C)/C=C/C(=O)[C@](C)(O)[C@H]1[C@H](OC(=O)/C=C/c2ccccc2)C[C@@]2(C)[C@@H]3CC=C4[C@@H](C[C@H](OC(=O)/C=C/c5ccccc5)C(=O)C4(C)C)[C@]3(C)C(=O)C[C@]12C | 11.7% | 0.97% | 3.56% | 9.26% |  |  | 

Reference: ChEMBL document CHEMBL5365466, “Discovery of Triazolyl Derivatives of Cucurbitacin B Targeting IGF2BP1 against Non-Small Cell Lung Cancer” (J Med Chem, 2023)
